Like-named read-outs stand apart in the source and are kept apart here.
Tests used:
CB1 receptor [1] = molecular target: T1, CB1 receptor (Mus musculus, UniProt P47746); assay: [35S]GTPγS binding, compound alone (Table 2, Function); format: biochemical; set-up: from tissue
Description: (§1) The [^35S] GTPγS binding assay is simply a means of measuring G protein activation following agonist occupation of a GPCR. The significance of replacing endogenous GTP with radiolabeled [^35S] GTPγS is two-fold. […] GTPγS. Secondly, as with any radiolabelling, the aim is to allow quantitative analysis of a selected molecular species, in this case the degree of agonist binding can be gauged by measuring the subsequent levels of radioactivity in the desired tissue.
(§2) A vehicle control was an essential aspect of the experiment. […] The vehicle is made up of 10 μL of DMSO and 990 μL of binding buffer, resulting in the assay containing 0.1% vehicle.
(§3) Buffer; [^35S] […] The GTPγS binding assay was initiated by the addition of the [^35S] GTPγS. The assay was incubated at 37° C. in a water bath for 1 hour. The assay was terminated by addition of ice-cold Tris/BSA buffer and rapid vacuum filtration using a 24-well Brandel (cell harvester) and glass-fibre filters that have been soaked in Tris/BSA buffer at 4° C. for 24 hours. Each well was washed 6 times with 1.2 mL of Tris/BSA buffer. The filters were then oven dried for 1 hour. The sections of filter papers were then separated and placed in individual vials, to which 5 mL of scintillation fluid was added. The filter papers were soaked in the scintillation fluid for 1 hour before the radioactivity in each vial was quantified by liquid scintillation spectrometry.
(§4) The data was fitted to a sigmoidal concentration-response curve using GraphPad Prism 4. Significance was defined by a one-sample t-test (GraphPad Prism 4), which compared mean % stimulation values S.E.M. to the basal binding level, 0.0% stimulation.

cannabinoid CB1 receptor = molecular target: T2, cannabinoid CB1 receptor (Mus musculus, UniProt P47746); assay: Mouse brain competition binding assay, [3H]CP55940 displacement
T2 construct: Whole brains from eight adult male mice were dissected and suspended in centrifugation buffer; from tissue; host or cells: mouse whole brain membranes
Experimental: The competition binding assay is a […] radioligand binding assay, which determines the affinity of a given compound for a specific receptor site, in this instance, the cannabinoid CB1 receptor. Mouse brain membranes were the chosen tissue due to their high expression of CB1 receptors.
Whole brains from eight adult male mice were dissected and suspended in centrifugation buffer. The brains were then homogenised with a Polytron Homogeniser prior to centrifugation at 1,600 RCF, 4° C. for 10 minutes. Centrifugation produced a supernatant, which was collected, and then the remaining pellet was re-suspended in centrifugation buffer and centrifuged as before. All supernatants were combined, and centrifuged at 28,000 RCF, 4° C. for a further 20 minutes. The supernatant was then discarded and the pellet re-suspended in Buffer A before incubation for 10 minutes at 37° C. The membrane suspension was then centrifuged at RCF 23,000, 4° C. for 20 minutes. The pellet was then re-suspended in Buffer A and incubated for 40 minutes at room temperature. The suspension was then centrifuged for 15 minutes at RCF 11,000, 4° C., and the pellet was then re-suspended in Buffer B. Finally a Protein Assay was carried out to determine the protein content of the mouse membrane preparation. The membrane samples were then made up into 1 mL aliquots of 1 mg/mL protein concentration and stored at −80° C. The samples were removed and defrosted when they were required.
The competition binding assay utilizes standard binding buffer, comprising:
10 μL of 1 mM stock of CP55940 in DMSO was added to 990 μL of binding buffer.
This was essential to obtain a value for specific binding, which is defined as the difference between the binding that occurs in the presence and absence of […] unlabelled CP55940.
as §3, with “[^3H]” for “[^35S]”, “competition” for “GTPγS binding”, “membranes.” for “[^35S] GTPγS.”, “had” for “have”
Data were fitted to a one-site competition curve using GraphPad Prism 4.

CB1 receptor [2] = molecular target: T1, CB1 receptor; assay: Electrically-evoked contractions of isolated mouse vas deferens, compound alone; set-up: The isolated vas deferens was then removed from the mouse by cutting through its prostatic end; from tissue; host or cells: isolated vas deferens of male albino MF1 mice; details: 1 μM, tested alone
Description: (§5) The vas deferens (or ductus deferens) is a muscular tube, approximately 3 mm in diameter and 30 cm in length, connecting the left and right epididymis to the ejaculatory ducts in order to move sperm. It is bound by connective tissue with an ample supply of blood vessels, nerves, and lymphatics. This in vitro bioassay exploits the expression of CB1 receptors on the presynaptic nerve terminals of this tubular structure.
(§6) The animals used in the study were male albino MF1 mice bred and were housed six to eight per-cage and were kept in a temperature-controlled room which was maintained on a fixed light-dark cycle. All mice were given free access to food and water. Subjects used in the study were a minimum of four weeks of age. Each mouse was stunned by striking the back of the head and killed by dislocation of the neck (cervical vertebrae). Following the killing, the mouse body weight was determined. A transverse incision, approximately of 1.5 cm, was made in the skin with the aid of dissection scissors. A similar-sized transverse incision was made through the lower abdominal wall. […] This was used to identify the vas deferens, which is attached to the testis via the epididymis. Gripping the epididymis with forceps, the vas deferens was cut free first from the testis and then from the connective tissue. The isolated vas deferens was then removed from the mouse by cutting through its prostatic end. This procedure was repeated on the right testis. It was important that throughout the latter two stages of this dissection, care was taken to ensure the vas deferens was not overstretched. In addition to their vas deferens, these animals were euthanized for use of their brain and small intestine by fellow researchers in different research fields. This minimisation of the number of animals euthanized complied with the European Community guidelines.
(§7) During transit, the two isolated vas deferens from each mice were kept moist in a glass vial filled with warm modified Mg^2+-free Krebs' solution. Before setting the tissue up in an organ bath, further removal of connective tissue, mesentery, and the epididymis was performed; cotton thread was tied securely to both end of the vas deferens.
(§8) The one-tailed thread was attached to the Pioden UF1 isometric transducer (Harvard Apparatus) and the two-tailed thread hung out of the bottom of the bath. The latter served as an anchor point for applying tension. […] Contractile activity was recorded using the isometric transducer and the output monitored by a computer connected to the data recording and analysis system (MacLab or PowerLab). The tissues were then ready for stimulation. […]

CB1 receptor [3] = molecular target: CB1 receptor (Homo sapiens, UniProt P21554); assay: [35S]GTPγS binding, compound alone, 24 hours FBS-starved CB1 CHO cells; format: biochemical; details: 1 nM to 10 μM
Description: as §1, §2, §3, §4
The vertical lines indicate S.E.M. (standard error of the mean) (*= P<0.05, **= P<0.01, ***= P<0.001, one-sample t-test) (n=4).

CB1 receptor [4] = molecular target: T1, CB1 receptor; assay: Electrically-evoked contractions of mouse isolated vas deferens, antagonism of CP55940; set-up: The isolated vas deferens was then removed from the mouse by cutting through its prostatic end; from tissue; host or cells: isolated vas deferens of male albino MF1 mice
Description: as §5, §6, §7, §8

CB1 receptor [5] = molecular target: T1, CB1 receptor; assay: [35S]GTPγS binding assay in mouse brain membranes, antagonism of CP55940; format: biochemical; set-up: Whole brains from eight adult male mice were dissected and suspended in centrifugation buffer; from tissue; host or cells: mouse whole brain membranes
Description: as §1, §2, §3, §4

[6] = patients, clinical trials; cited from earlier work
[7] = mouse brain membranes, [3H]CP55940 0.7 nM, read-out: Ki (nM) [affinity] Mouse Brain [3H]CP55940 Displacement

CB1 receptor (Homo sapiens, UniProt P21554), sequence (P21554 whole entry): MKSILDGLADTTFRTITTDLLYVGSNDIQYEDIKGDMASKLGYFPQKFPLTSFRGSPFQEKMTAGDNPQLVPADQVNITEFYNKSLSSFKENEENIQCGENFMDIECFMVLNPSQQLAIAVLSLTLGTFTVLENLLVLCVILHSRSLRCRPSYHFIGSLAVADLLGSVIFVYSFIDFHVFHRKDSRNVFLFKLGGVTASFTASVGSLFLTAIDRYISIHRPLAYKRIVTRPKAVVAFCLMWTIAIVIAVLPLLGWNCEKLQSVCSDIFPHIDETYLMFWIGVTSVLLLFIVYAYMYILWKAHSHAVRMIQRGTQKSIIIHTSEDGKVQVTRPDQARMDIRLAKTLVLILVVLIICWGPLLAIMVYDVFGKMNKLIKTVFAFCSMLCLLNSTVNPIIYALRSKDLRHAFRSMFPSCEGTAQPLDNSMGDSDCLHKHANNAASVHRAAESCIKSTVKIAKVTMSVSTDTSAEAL
T1 sequence (P47746 whole entry): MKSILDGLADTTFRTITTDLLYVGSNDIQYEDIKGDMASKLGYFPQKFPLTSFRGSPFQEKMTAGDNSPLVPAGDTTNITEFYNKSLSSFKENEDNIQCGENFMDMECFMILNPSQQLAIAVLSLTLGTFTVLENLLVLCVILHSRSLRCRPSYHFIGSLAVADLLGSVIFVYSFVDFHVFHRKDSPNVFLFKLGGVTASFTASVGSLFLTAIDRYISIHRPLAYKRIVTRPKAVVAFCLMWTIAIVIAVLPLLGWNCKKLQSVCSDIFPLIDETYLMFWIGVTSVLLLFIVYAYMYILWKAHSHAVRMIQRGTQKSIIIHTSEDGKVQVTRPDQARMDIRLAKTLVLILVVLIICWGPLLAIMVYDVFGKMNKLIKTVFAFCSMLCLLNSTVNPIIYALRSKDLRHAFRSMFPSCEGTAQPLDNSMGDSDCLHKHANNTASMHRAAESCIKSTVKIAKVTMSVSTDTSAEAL
T2 sequence (P47746 whole entry): as above

Row | Function Mouse Brain [35S]GTPγS Alone (CB1 receptor [1]; compound alone) | Ki (cannabinoid CB1 receptor; [7]) [nM] | Compound | Ki (cannabinoid CB1 receptor) [nM] | further results
1 | Neutral antagonist | 27.1 | Cc1ccc(CC(=O)c2nn(-c3ccc(Cl)cc3Cl)c(-c3ccc(Br)cc3)c2C)cc1 [ABD440] |  | 
2 | Neutral antagonist | 7.15 | Cc1c(C(=O)Cc2ccc(F)cc2)nn(-c2ccc(Cl)cc2Cl)c1-c1ccc(Cl)cc1 [ABD436] |  | 
3 | Neutral antagonist | 13.8 | Cc1c(C(=O)c2cccc(F)c2)nn(-c2ccc(Cl)cc2Cl)c1-c1ccc(Cl)cc1 [ABD453] |  | 
4 | Neutral antagonist | 3.78 | Cc1c(C(=O)CC2CCCCC2)nn(-c2ccc(Cl)cc2Cl)c1-c1ccc(Cl)cc1 [ABD395] |  | Effect on electrically-evoked contractions of isolated mouse vas deferens (CB1 receptor [2]): neither inhibited nor significantly enhanced; Effect on [35S]GTPγS binding, compound alone (CB1 receptor [3]): only a small increase; Shift in the log concentration response curve for CP55940, vas deferens contraction (CB1 receptor [4]): right-ward shift; Shift in the log concentration response curve for CP55940, [35S]GTPγS (CB1 receptor [5]): right-ward shift
5 | Neutral antagonist | 19.7 | COc1cccc(CC(=O)c2nn(-c3ccc(Cl)cc3Cl)c(-c3ccc(Br)cc3)c2C)c1 [ABD439] |  | 
6 | Neutral antagonist | 26.7 | Cc1c(C(=O)c2cccc(OC(F)(F)F)c2)nn(-c2ccc(Cl)cc2Cl)c1-c1ccc(Cl)cc1 [ABD454] |  | 
7 | Neutral antagonist | 24.2 | Cc1c(C(=O)Cc2ccccc2)nn(-c2ccc(Cl)cc2Cl)c1-c1ccc(Cl)cc1 [ABD406] |  | Effect on electrically-evoked contractions of isolated mouse vas deferens (CB1 receptor [2]): neither inhibited nor significantly enhanced; Effect on [35S]GTPγS binding, compound alone (CB1 receptor [3]): no reduction; Shift in the log concentration response curve for CP55940, vas deferens contraction (CB1 receptor [4]): right-ward shift; Shift in the log concentration response curve for CP55940, [35S]GTPγS (CB1 receptor [5]): right-ward shift
8 | Neutral antagonist | 63.2 | Cc1c(C(=O)c2ccc(F)cc2)nn(-c2ccc(Cl)cc2Cl)c1-c1ccc(Cl)cc1 [ABD450] |  | 

More lines, now with the values behind:

Row | Compound | Function Mouse Brain [35S]GTPγS Alone (CB1 receptor [1]; compound alone) | Ki (cannabinoid CB1 receptor; [7]) [nM] | Ki (cannabinoid CB1 receptor) [nM] | further results
9 | Cc1c(C(O)CC2CCCCC2)nn(-c2ccc(Cl)cc2Cl)c1-c1ccc(Br)cc1 (stereo not drawn) [ABD402, 1-[5-(4-Bromophenyl)-1-(2,4-dichlorophenyl)-4-methylpyrazol-3-yl]-2-cyclohexylethanol] | Neutral antagonist |  | 32.3 | Effect on electrically-evoked contractions of isolated mouse vas deferens (CB1 receptor [2]): neither inhibited nor significantly enhanced; Effect on [35S]GTPγS binding, compound alone (CB1 receptor [3]): no reduction; Shift in the log concentration response curve for CP55940, vas deferens contraction (CB1 receptor [4]): right-ward shift; Shift in the log concentration response curve for CP55940, [35S]GTPγS (CB1 receptor [5]): right-ward shift
10 | Cc1cccc(CC(=O)c2nn(-c3ccc(Cl)cc3Cl)c(-c3ccc(Cl)cc3)c2C)c1 [ABD434] |  |  | 7.42 | Function Mouse Brain [35S]GTPγS Alone (CB1 receptor [1]): Neutral antagonist
11 | Cc1c(C(=O)CC2CCCCC2)nn(-c2ccc(Cl)cc2Cl)c1-c1ccc(Br)cc1 [ABD399] | Neutral antagonist |  | 12.3 | Effect on electrically-evoked contractions of isolated mouse vas deferens (CB1 receptor [2]): neither inhibited nor significantly enhanced; Effect on [35S]GTPγS binding, compound alone (CB1 receptor [3]): no reduction; Shift in the log concentration response curve for CP55940, vas deferens contraction (CB1 receptor [4]): right-ward shift; Shift in the log concentration response curve for CP55940, [35S]GTPγS (CB1 receptor [5]): right-ward shift
12 | Cc1c(C(=O)NN2CCCCC2)nn(-c2ccc(Cl)cc2Cl)c1-c1ccc(Cl)cc1 [SR141716A, N-(piperidin-1-yl)-5-(4-chlorophenyl)-1-(2,4-dichlorophenyl)-4-methyl-1H-pyrazole-3-carboxamide] |  |  |  | Body weight lost each year [6]: 5-10%; First year drop-out rate due to side effects [6]: 40-50%
13 | Cc1ccc(C(=O)c2nn(-c3ccc(Cl)cc3Cl)c(-c3ccc(Cl)cc3)c2C)cc1C [ABD437] |  |  | 14.2 | Function Mouse Brain [35S]GTPγS Alone (CB1 receptor [1]): Neutral antagonist
14 | Cc1c(C(=O)c2cccc(C(F)(F)F)c2)nn(-c2ccc(Cl)cc2Cl)c1-c1ccc(Cl)cc1 [ABD449] |  |  | 64.8 | Function Mouse Brain [35S]GTPγS Alone (CB1 receptor [1]): Neutral antagonist
15 | COc1cccc(C(=O)c2nn(-c3ccc(Cl)cc3Cl)c(-c3ccc(Br)cc3)c2C)c1 [ABD438] |  |  | 7.7 | Function Mouse Brain [35S]GTPγS Alone (CB1 receptor [1]): Neutral antagonist
16 | COc1ccc(C(=O)c2nn(-c3ccc(Cl)cc3Cl)c(-c3ccc(Br)cc3)c2C)cc1 [ABD459] | Neutral antagonist | 8.6 |  | 

Source: patent US20100022611A1 (THE UNIVERSITY COURT OF THE UNIVERSITY OF ABERDEEN, priority 2007, published 2010)
